Where two headings read alike, the source gives them in different places.
Target: T1, KSP motor domain (Homo sapiens, UniProt P52732)
T1 sequence (P52732 18-359 limits assumed): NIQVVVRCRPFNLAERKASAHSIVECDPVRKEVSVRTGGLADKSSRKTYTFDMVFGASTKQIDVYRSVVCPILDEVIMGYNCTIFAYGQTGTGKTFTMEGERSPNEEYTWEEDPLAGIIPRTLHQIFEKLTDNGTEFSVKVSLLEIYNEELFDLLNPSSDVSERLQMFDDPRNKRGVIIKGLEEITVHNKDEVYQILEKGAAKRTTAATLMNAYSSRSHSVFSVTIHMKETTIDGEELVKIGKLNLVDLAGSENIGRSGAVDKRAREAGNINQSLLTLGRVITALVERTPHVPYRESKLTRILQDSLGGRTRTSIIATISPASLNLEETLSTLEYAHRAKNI
Assay: KSP endpoint assay (microtubule-stimulated ATPase, Biomol green, OD620)
Format: biochemical
Method: Serial dilutions of the compounds were prepared in a low binding, 96-well microtiter plate (Costar #3600) using 40% DMSO (Fisher BP231). The diluted compounds were added to a 384-well microtiter plate (Fisher 12-565-506). […] Following a 10 minute incubation, ATP (Sigma A-3377) (final concentration of ATP: 100 μM) was added to start the reaction. The final reaction volume was 25 μL. Final test compound concentration ranged from 50 μM to 5 nM, and 10 μM to 0.128 nM. The reaction was incubated for 1 hour at room temperature. The reaction was stopped by the addition of 50 μL Biomol green reagent (Biomol AK111) per well, and was allowed to incubate for 20 minutes at room temperature. The 384-well microtiter plate was then transferred to an absorbance reader (Molecular Devices SpectraMax plus) and a single measurement was taken at 620 nm.
For both endpoint and kinetic assays, the percent activity for each concentration is calculated using the following equation: Y=((X−background)/(positive control−background))*100
Y is the % activity and X is the measured reading (OD620 or rate)
For an IC50 determination, the % activity was fit by the following equation using a nonlinear curve-fitting program for sigmoidal dose-responses (variable slopes) (GraphPad Prizm). Y=Bottom+(Top−Bottom)/(1+10ˆ((Log EC50−X)*HillSlope))
All IC50 values are obtained from the end point assay.

[1] = endpoint assay, 2.5-10 nM KSP motor domain, 55 μg/mL microtubules, 100 μM ATP, 1 hour at room temperature, read-out: IC50 (KSP inhibitory activity, endpoint assay)

SMILES	IC50 [1] [nM]	IC50 [nM]
CC(C)(C)c1ccc2nc3sc(C#N)cc3cc2c1 [Compound 1, 6-tert-butyl-thieno[2,3-b]quinoline-2-carbonitrile]	160	
CC(C)(C)c1ccc2nc3sc(C(N)=O)cc3cc2c1 [Compound 2, 6-tert-butyl-thieno[2,3-b]quinoline-2-carboxylic acid amide]	80	
CC(C)(C)c1ccc2nc3sc(C(=O)O)cc3cc2c1 [Compound 3, 6-tert-butyl-thieno[2,3-b]quinoline-2-carboxylic acid]	> 10000	
CC(C)(C)OC(=O)NCCNC(=O)c1cc2cc3cc(C(C)(C)C)ccc3nc2s1 [Compound 4, {2-[(6-tert-Butyl-thieno[2,3-b]quinoline-2-carbonyl)amino]ethyl}carbamic acid tert-butyl ester]	> 10000	
CC(C)(C)c1ccc2nc3sc(C(=O)NCCN)cc3cc2c1 [Compound 5, 6-tert-butyl-thieno[2,3-b]quinoline-2-carboxylic acid (2-aminoethyl)amide]	70	
CNCCNC(=O)c1cc2cc3cc(C(C)(C)C)ccc3nc2s1 [Compound 6, 6-tert-butyl-thieno[2,3-b]quinoline-2-carboxylic acid (2-methylaminoethyl)amide]	290	
CN(C)CCNC(=O)c1cc2cc3cc(C(C)(C)C)ccc3nc2s1 [Compound 7, 6-tert-butyl-thieno[2,3-b]quinoline-2-carboxylic acid (2-dimethylaminoethyl)-amide]	> 10000	
CC(C)(C)c1ccc2nc3sc(C(=O)NCCC#N)cc3cc2c1 [Compound 8, 6-tert-Butyl-thieno[2,3-b]quinoline-2-carboxylic acid (2-cyanoethyl)amide]	9000	
CC(C)(C)c1ccc2nc3sc(C(=O)NCC#N)cc3cc2c1 [Compound 9, 6-tert-butyl-thieno[2,3-b]quinoline-2-carboxylic acid cyanomethylamide]	600	
COc1ccc(CN2CC(NC(=O)c3cc4cc5cc(C(C)(C)C)ccc5nc4s3)C2=O)c(OC)c1 (centres unmarked) [Compound 10, 6-tert-butyl-thieno[2,3-b]quinoline-2-carboxylic acid [1-(2,4-dimethoxybenzyl)-2-oxo-azetidin-3-yl]amide]	> 10000	
CC(C)(C)c1ccc2nc3sc(C(=O)NC4CNC4=O)cc3cc2c1 (centres unmarked) [Compound 11, 6-tert-butyl-thieno[2,3-b]quinoline-2-carboxylic acid (2-oxo-azetidin-3-yl)amide]	8400	
C[Si](C)(C)c1ccc2nc3sc(C(N)=O)cc3cc2c1 [Compound 12, 6-(trimethylsilyl)thieno[2,3-b]quinoline-2-carboxamide]		38
CC(C)(C)c1ccc2nc3sc(C(=O)N[C@H](CN)c4ccccc4)cc3cc2c1 [Compound 13, 6-tert-butyl-thieno[2,3-b]quinoline-2-carboxylic acid (2-amino-1-(S)-phenyl-ethyl)-amide]	35	
CC(C)(C)c1ccc2nc3sc(C(=O)N[C@H](CN)c4cccc(N)c4)cc3cc2c1 [Compound 14, 6-tert-butyl-thieno[2,3-b]quinoline-2-carboxylic acid [2(S)-amino-1-(3-amino-phenyl)-ethyl]-amide]	25	
CC(C)(C)c1ccc2nc3sc(C(=O)N[C@H](CN)c4cccc(NC(=O)c5cnccn5)c4)cc3cc2c1 [Compound 15, 6-tert-butyl-thieno[2,3-b]quinoline-2-carboxylic acid (2-amino-1(S)-{3-[(pyrazine-2-carbonyl)-amino]-phenyl}-ethyl)-amide]	30	
CC(C)(C)c1ccc2nc3sc(C(=O)N[C@H](CN)c4cccc(NC(=O)c5nccnc5N)c4)cc3cc2c1 [Compound 16]	26	
Cc1cc(C(=O)Nc2cccc([C@@H](CN)NC(=O)c3cc4cc5cc(C(C)(C)C)ccc5nc4s3)c2)no1 [Compound 17, 6-tert-butyl-thieno[2,3-b]quinoline-2-carboxylic acid (2-amino-1(S)-{3-[(5-methyl-isoxazole-3-carbonyl)-amino]-phenyl}-ethyl)-amide]	36	

Reference: US20060281778A1, “Compounds for inhibiting KSP Kinesin activity” (Schering Corporation, priority 2005, published 2006)
